From ChEMBL document CHEMBL1147899, “Raman, FT-IR, NMR spectroscopic data and antimicrobial activity of bis[micro2-(benzimidazol-2-yl)-2-ethanethiolato-N,S,S-chloro-palladium(II)] dimer, [(micro2-CH2CH2NHNCC6H4)PdCl]2.C2H5OH complex” (2007)

How the values were obtained:
Type in all cases: functional
[1] = system: Hanseniaspora guilliermondii; experiment: Antifungal activity against Hanseniaspora guilliermondii DSM 3432 at 10 ug after 72 hrs by disk diffusion method; conditions: DSM 3432, 72 h, read-out: IZ
[2] = system: Candida albicans; experiment: Antifungal activity against Candida albicans ATCC 10231 at 10 ug after 72 hrs by disk diffusion method; conditions: ATCC 10231, 72 h, read-out: IZ
[3] = system: Debaryomyces hansenii; experiment: Antifungal activity against Debaryomyces hansenii DSM 70238 at 10 ug after 72 hrs by disk diffusion method; conditions: DSM 70238, 72 h, read-out: IZ
[4] = system: Rhodotorula mucilaginosa; experiment: Antifungal activity against Rhodotorula rubra DSM 70403 at 10 ug after 72 hrs by disk diffusion method; conditions: DSM 70403, 72 h, read-out: IZ
[5] = system: Kluyveromyces marxianus; experiment: Antifungal activity against Kluyveromyces fragilis NRRL 2415 at 10 ug after 72 hrs by disk diffusion method; conditions: NRRL 2415, 72 h, read-out: IZ

How did the zone of inhibition at 10 µg/disc [1] turn out when Clc1ccccc1C(c1ccccc1)(c1ccccc1)n1ccnc1 [CLOTRIMAZOLE] was run?
Its zone of inhibition at 10 µg/disc is 22 mm.

And the zone of inhibition at 10 µg/disc [2]?
Its zone of inhibition at 10 µg/disc is 15 mm.

What about the zone of inhibition at 10 µg/disc [3] of the same compound?
The zone of inhibition at 10 µg/disc was 18 mm.

What about the zone of inhibition at 10 µg/disc [4] of the same compound?
Its zone of inhibition at 10 µg/disc is 16 mm.

What about the zone of inhibition at 10 µg/disc [5] of the same compound?
The zone of inhibition at 10 µg/disc was 18 mm.
